# Data from patent US20240226072A1 (Stichting Het Nederlands Kanker Instituut, priority 2022, published 2024).
# How the values were obtained:
# [1] = Oatp1a/b−/− compared to wild-type mice after intravenous administration; Iusuf et al.; cited from earlier work
# in vivo = conditions: male, mouse, po, 10 mg/kg; for AUC(0-t): AUC0-24 h
# Experimental: The Jevtana (10 mg/mL) solution contains 0.26 mg/mL polysorbate 80 and 15% (w/v) ethanol, and is adjusted to pH 2-6 with citric acid. […] The stock solution was further diluted 5-fold with water to reach a 2.5 mg/mL dosing solution for oral administration. The vehicle solution only consists of polysorbate 80, ethanol and water (1:1:8, v/v/v). […] All dosing solutions were prepared freshly on the day of the experiment.
# At the termination time point of 24 hours, mice were anesthetized using an isoflurane evaporator with 3% isoflurane with 0.8 L/min air and 0.3 L/min oxygen. A final blood sample was taken using cardiac puncture, using Eppendorf tubes previously prepared with heparin as an anticoagulant. Subsequently, the anesthetized mice were sacrificed by cervical dislocation and the tissues of interest were collected. Brain, liver, spleen, kidney, small intestine, and testis were collected. The small intestinal content (SIC) was separately collected by removing this from the small intestinal tissue, which was subsequently rinsed with saline to remove possibly fecal residue. The blood samples were centrifuged at 9,000×g for 6 minutes at 4° C., and the plasma fraction was isolated and stored at −30° C. until analysis. Brain, liver, spleen, kidney, small intestinal tissue, SIC, and testis were homogenized in a FastPrep-24™ 5G homogenizer (M. P. Biomedicals, Santa Ana, CA, USA) for 1 min with 1, 3, 1, 2, 3, 2, and 1 mL of 2% (w/v) BSA in Milli-Q water, respectively. Until analysis of the samples, they were all stored at −30° C.
# Pharmacokinetic parameters were estimated by non-compartmental analysis using the software package of PK solutions 2.0.2 (SUMMIT, Research Service). The area under the curve (AUC) of the plasma-concentration time curve for all the compounds was calculated using the linear trapezoidal rule without extrapolating to infinity. The peak plasma concentration (Cmax) and the time to reach peak plasma concentration (Tmax) were obtained directly from the individual raw data. For the statistical analysis and the graphs GraphPad Prism 9 (GraphPad Software Inc., La Jolla, CA, USA) was used. The statistics for the comparison of multiple groups were calculated with the one-way analysis of variance (ANOVA), whereas Sidak's post hoc correction was performed. Log-transformation before statistical analysis was applied, when variances within the groups were not homogeneously distributed. Differences were considered statistically significant when P<0.05. All data are presented as geometric mean±SD.
# [2] = chemically castrated men compared to non-castrated patients; cited from earlier work
# [3] = Plasma pharmacokinetics and tissue distribution 2 h after oral cabazitaxel 10 mg/kg with vehicle or 25 mg/kg ritonavir in wild-type, Oatp1a/1b−/−, Oatp1a/1b/2b1−/−, OATP1B1- and OATP1B3-transgenic mice; format: in vivo; conditions: for reduction of SIC recovered percentage of dose corrected for the plasma AUC: vehicle + oral cabazitaxel 10 mg/kg, 2 h; for Cmax / Tmax / AUC(0-t): male, FVB, mouse, plasma, po, 10 mg/kg, vehicle pretreatment, oral 10 mg/kg cabazitaxel; for AUC(0-t): 0-2 h, read-out: AUC0-2 h
# Experimental: All animals were fasted 2 to 3 hours prior to the start of the experiment to minimize variation in absorption after oral administration. […] Subsequently, cardiac puncture was performed with a heparinized needle and syringe collecting a final blood sample. […] All samples were stored at −30° C. until analysis.
# Differences were considered statistically significant when P<0.05. All data are presented as geometric mean±SD.
# [4] = Cyp3aXAV (human CYP3A in Cyp3a−/−, FVB background)
compound,measurement,setting,value
CC(=O)O[C@@]12CO[C@@H]1C[C@H](O)[C@@]1(C)C(=O)[C@H](O)C3=C(C)[C@@H](OC(=O)[C@H](O)[C@@H](NC(=O)OC(C)(C)C)c4ccccc4)C[C@@](O)([C@@H](OC(=O)c4ccccc4)[C@H]21)C3(C)C [docetaxel],increase in plasma AUC,[1],3 fold
same,AUC0-24 h,in vivo; [4],271 nM·h
same,AUC(0-t),in vivo; [4],0.285 µM·h
same,AUC(0-t),"in vivo; FVB, Cyp3aXAV",0.681 µM·h
same,AUC(0-t),"in vivo; FVB, wild-type",0.707 µM·h
same,Cmax,"in vivo; FVB, wild-type, Cmax",119 nM
same,reduction of plasma AUC,[2],2 fold
same,reduction of SIC recovered percentage of dose corrected for the plasma AUC,[3]; Oatp1a/1b/2b1−/− compared to wild-type mice,2.9 fold
same,reduction of SIC recovered percentage of dose corrected for the plasma AUC,[3]; Oatp1a/1b−/− compared to wild-type mice,4.0 fold
same,Cmax,[3]; OATP1B1-transgenic mice,206 ± 105 nM
same,Tmax,[3]; OATP1B1-transgenic mice,35 min
same,AUC(0-t),[3]; OATP1B1-transgenic mice,0.271 ± 0.144 µM·h
same,Cmax,[3]; OATP1B3-transgenic mice,248 ± 145 nM
same,Tmax,[3]; OATP1B3-transgenic mice,45 min
same,AUC(0-t),[3]; OATP1B3-transgenic mice,0.305 ± 0.177 µM·h
same,Cmax,[3]; Oatp1a/1b/2b1−/− mice,202 ± 65 nM
same,Tmax,[3]; Oatp1a/1b/2b1−/− mice,35 min
same,AUC(0-t),[3]; Oatp1a/1b/2b1−/− mice,0.252 ± 0.069 µM·h
same,Cmax,[3]; Oatp1a/1b−/− mice,191 ± 43 nM
same,Tmax,[3]; Oatp1a/1b−/− mice,35 min
same,AUC(0-t),[3]; Oatp1a/1b−/− mice,0.216 ± 0.047 µM·h
same,Cmax,[3]; wild-type mice,84 ± 30 nM
same,Tmax,[3]; wild-type mice,25 min
same,AUC(0-t),[3]; wild-type mice,0.091 ± 0.043 µM·h
